From patent US20250296959A1, “B7-H3 TARGETING PEPTIDES AND CONSTRUCTS THEREOF” (Mariana Oncology Inc., priority 2024, published 2025)
Starred links: 1 amine or outer side, 2 acyl side, 3 side chain; linkers in the order of their positions; H or OH if unused. Positions of bridges follow the written chain, without caps; N, C: chain ends. Non-standard residues stand in square brackets, D forms with d. Residues, ends and D or L forms follow the SMILES beside them. Groups on a side chain read outwards from the residue. *: point of attachment. X4 = O=C(O)CN1CCN(CC(=O)O)CCN([C@H](CCC(=O)*)C(=O)O)CCN(CC(=O)O)CC1; Ala(piperidin-4-yl) = O=C([C@H](CC1CCN([*:3])CC1)N[*:1])[*:2]; DOTA = O=C(O)CN1CCN(CC(=O)O)CCN(CC(=O)*)CCN(CC(=O)O)CC1; Butanoyl(4-(4-I-phenyl)) = O=C(CCCc1ccc(I)cc1)*; Phe(4-COOH) = N[C@@H](Cc1ccc(C(=O)O)cc1)C(=O)O; Trp(5-F) = N[C@@H](Cc1c[nH]c2ccc(F)cc12)C(=O)O; X1 = C[C@@H](c1ccccc1)[C@H](N[*:1])C(=O)[*:2]; PEG8 = NCCOCCOCCOCCOCCOCCOCCOCCOCCC(=O)O; Phe(3-Cl) = N[C@@H](Cc1cccc(Cl)c1)C(=O)O; Ala(4-THP) = N[C@@H](CC1CCOCC1)C(=O)O; hLeu(5-Me) = CC(C)(C)CC[C@H](N)C(=O)O; Val(3-OH) = CC(C)(O)[C@H](N)C(=O)O; hPhe = N[C@@H](CCc1ccccc1)C(=O)O; αMeF = C[C@](N)(Cc1ccccc1)C(=O)O; 4Pal = N[C@@H](Cc1ccncc1)C(=O)O; Cha = N[C@@H](CC1CCCCC1)C(=O)O; Chg = N[C@H](C(=O)O)C1CCCCC1; PEG4 = NCCOCCOCCOCCOCCC(=O)O; Tle = CC(C)(C)[C@H](N)C(=O)O; hLeu = CC(C)CC[C@H](N)C(=O)O; Nle = CCCC[C@H](N)C(=O)O

Molecular target: T1, human 4lg B7-H3 (Homo sapiens, UniProt Q5ZPR3)
T1 sequence (Q5ZPR3 29-534): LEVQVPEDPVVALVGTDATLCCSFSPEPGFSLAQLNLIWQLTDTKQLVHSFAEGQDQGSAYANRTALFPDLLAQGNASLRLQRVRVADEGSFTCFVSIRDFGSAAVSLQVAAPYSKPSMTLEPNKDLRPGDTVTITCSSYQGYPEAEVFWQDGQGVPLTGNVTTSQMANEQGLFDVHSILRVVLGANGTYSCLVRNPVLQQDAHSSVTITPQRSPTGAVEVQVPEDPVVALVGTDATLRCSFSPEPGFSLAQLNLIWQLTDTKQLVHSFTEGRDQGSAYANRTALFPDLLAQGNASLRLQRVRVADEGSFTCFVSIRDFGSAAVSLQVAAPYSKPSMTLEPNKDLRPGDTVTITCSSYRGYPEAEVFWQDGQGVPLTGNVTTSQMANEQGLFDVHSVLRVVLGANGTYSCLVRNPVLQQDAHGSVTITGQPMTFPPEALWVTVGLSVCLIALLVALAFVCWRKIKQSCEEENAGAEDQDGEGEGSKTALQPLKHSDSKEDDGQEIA
Test: Affinity determination by surface plasmon resonance (SPR) to 4Ig B7-H3
Details: 4Ig B7-H3

[1] = SPR KD—25° C., 25° C. flow cell temperature
[2] = SPR KD—37° C., 37° C. flow cell temperature

Compound	Kd [1]	Kd [2]
CC(=O)N[C@@H](CCC(C)C)C(=O)N[C@@H](Cc1ccc(O)cc1)C(=O)N[C@H]1CSSC[C@@H](C(=O)N[C@@H](CCc2ccccc2)C(=O)N[C@@H](Cc2ccccc2)C(=O)N[C@H](C(=O)N[C@H](CCCCNC(=O)CN2CCN(CC(=O)O)CCN(CC(=O)O)CCN(CC(=O)O)CC2)C(=O)O)[C@@H](C)O)NC(=O)[C@H](Cc2ccc(O)cc2)NC(=O)[C@H](C(C)C)NC(=O)[C@H](CC(=O)O)NC(=O)[C@H](CC2CCOCC2)NC(=O)[C@H](CCCCN)NC(=O)CNC(=O)[C@H](C(C)(C)C)NC1=O [compound 359, Ac-hLeu-Y-C-Tbg-G-K-ThpA-D-V-Y-C-hF-F-Thr-dLys(DOTA)-COOH] (Ac-[hLeu]YC[Tle]GK[Ala(4-THP)]DVYC[hPhe]FT[dK](DOTA)-OH; disulfide 3-11)	100 to 300 nM	
CC(=O)N[C@@H](CCC(C)C)C(=O)N[C@@H](Cc1ccc(O)cc1)C(=O)N[C@H]1CSSC[C@@H](C(=O)N[C@@H](Cc2c[nH]c3ccc(F)cc23)C(=O)N[C@@H](Cc2cccc(Cl)c2)C(=O)N[C@H](C(=O)N[C@H](CCCCNC(=O)CN2CCN(CC(=O)O)CCN(CC(=O)O)CCN(CC(=O)O)CC2)C(=O)O)C(C)(C)O)NC(=O)[C@H](Cc2ccc(O)cc2)NC(=O)[C@H](C(C)C)NC(=O)[C@H](CC(=O)O)NC(=O)[C@H](CC2CCOCC2)NC(=O)[C@H](CC2CCNCC2)NC(=O)CNC(=O)[C@H](C(C)(C)C)NC1=O [compound 430, Ac-hLeu-Y-C-Tbg-G-PipAla-ThpA-D-V-Y-C-5FW-3CIPhe-hydroxyVal-dLys(DOTA)-COOH] (Ac-[hLeu]YC[Tle]G[Ala(piperidin-4-yl)][Ala(4-THP)]DVYC[Trp(5-F)][Phe(3-Cl)][Val(3-OH)][dK](DOTA)-OH; disulfide 3-11)		< 1 nM
COc1ccc(C[C@H](NC(=O)[C@H](CCC(C)C)NC(C)=O)C(=O)N[C@H]2CSSC[C@@H](C(=O)N[C@@H](Cc3c[nH]c4ccc(F)cc34)C(=O)N[C@@H](Cc3ccccc3)C(=O)N[C@H](C(=O)N[C@H](CCCCNC(=O)CN3CCN(CC(=O)O)CCN(CC(=O)O)CCN(CC(=O)O)CC3)C(N)=O)[C@@H](C)O)NC(=O)[C@H](Cc3ccc(O)cc3)NC(=O)[C@H](C(C)C)NC(=O)[C@H](CC(=O)O)NC(=O)[C@H](Cc3ccc(O)cc3)NC(=O)[C@H](CCCCN)NC(=O)CNC(=O)[C@H](C(C)C)NC2=O)cc1 [compound 193, Ac-hLeu-OMeTyr-C-V-G-K-Y-D-V-Y-C-5FW-F-Thr-dLys(DOTA)-CONH2] (Ac-[hLeu]Y(Me)CVGKYDVYC[Trp(5-F)]FT[dK](DOTA)-NH2; disulfide 3-11)	10 to 100 nM	
CC(C)CC[C@H](NC(=O)CCOCCOCCOCCOCCOCCOCCOCCOCCNC(=O)CCCc1ccc(I)cc1)C(=O)N[C@@H](Cc1ccc(O)cc1)C(=O)N[C@H]1CSSC[C@@H](C(=O)N[C@@H](Cc2c[nH]c3ccc(F)cc23)C(=O)N[C@@H](Cc2ccccc2)C(=O)N[C@H](C(=O)N[C@H](CCCCNC(=O)CN2CCN(CC(=O)O)CCN(CC(=O)O)CCN(CC(=O)O)CC2)C(=O)O)C(C)(C)O)NC(=O)[C@H](Cc2ccc(O)cc2)NC(=O)[C@H](C(C)C)NC(=O)[C@H](CC(=O)O)NC(=O)[C@H](CC2CCOCC2)NC(=O)[C@H](CCCCN)NC(=O)CNC(=O)[C@H](C(C)(C)C)NC1=O [compound 365, AB-PEG8-hLeu-Y-C-Tbg-G-K-ThpA-D-V-Y-C-5FW-F-hydroxyVal-dLys(DOTA)-COOH] ({Butanoyl(4-(4-I-phenyl))-PEG8}-[hLeu]YC[Tle]GK[Ala(4-THP)]DVYC[Trp(5-F)]F[Val(3-OH)][dK](DOTA)-OH; disulfide 3-11)		10 to 100 nM
CC(=O)NCCOCCOCCOCCOCCC(=O)N1CCC(C[C@@H]2NC(=O)[C@H](CC3CCNCC3)NC(=O)CNC(=O)[C@H](C(C)(C)C)NC(=O)[C@@H](NC(=O)[C@H](Cc3ccc(O)cc3)NC(=O)[C@H](CCC(C)C)NC(C)=O)CSSC[C@@H](C(=O)N[C@@H](Cc3c[nH]c4ccc(F)cc34)C(=O)N[C@H](C(=O)N[C@H](C(=O)N[C@H](CCCCNC(=O)CN3CCN(CC(=O)O)CCN(CC(=O)O)CCN(CC(=O)O)CC3)C(=O)O)C(C)(C)O)[C@@H](C)c3ccccc3)NC(=O)[C@H](Cc3ccc(O)cc3)NC(=O)[C@H](C(C)C)NC(=O)[C@H](CC(=O)O)NC2=O)CC1 [compound 515, Ac-hLeu-Y-C-Tbg-G-PipAla-Pip(PEG4-Ac)Ala-D-V-Y-C-5FW-[(2S, 3S)beta-Me-Phe]-hydroxyVal-dLys(DOTA)-COOH] (Ac-[hLeu]YC[Tle]G[Ala(piperidin-4-yl)][Ala(piperidin-4-yl)]([PEG4-Ac])DVYC[Trp(5-F)][X1][Val(3-OH)][dK](DOTA)-OH; disulfide 3-11)		< 1 nM
CCCC[C@H](NC(C)=O)C(=O)N[C@@H](Cc1ccc(O)cc1)C(=O)N[C@H]1CSSC[C@@H](C(=O)N[C@@H](Cc2c[nH]c3ccccc23)C(=O)N[C@@H](CC2CCCCC2)C(=O)N[C@H](C(=O)N[C@H](CCCCNC(=O)CN2CCN(CC(=O)O)CCN(CC(=O)O)CCN(CC(=O)O)CC2)C(N)=O)[C@@H](C)O)NC(=O)[C@H](Cc2ccc(O)cc2)NC(=O)[C@H](C(C)C)NC(=O)[C@H](CC(=O)O)NC(=O)[C@H](Cc2ccc(O)cc2)NC(=O)[C@H](CCCCN)NC(=O)CNC(=O)[C@H](C(C)C)NC1=O [compound 82, Ac-Nle-Y-C-V-G-K-Y-D-V-Y-C-W-ChA-Thr-dLys(DOTA)-CONH2] (Ac-[Nle]YCVGKYDVYCW[Cha]T[dK](DOTA)-NH2; disulfide 3-11)	100 to 300 nM	
CC(=O)N[C@@H](CCC(C)(C)C)C(=O)N[C@@H](Cc1ccc(O)cc1)C(=O)N[C@H]1CSSC[C@@H](C(=O)N[C@@H](Cc2c[nH]c3ccc(F)cc23)C(=O)N[C@@H](Cc2ccccc2)C(=O)N[C@H](C(=O)N[C@H](CCCCNC(=O)CN2CCN(CC(=O)O)CCN(CC(=O)O)CCN(CC(=O)O)CC2)C(=O)O)C(C)(C)O)NC(=O)[C@H](Cc2ccc(O)cc2)NC(=O)[C@H](C(C)C)NC(=O)[C@H](CC(=O)O)NC(=O)[C@H](CC2CCOCC2)NC(=O)[C@H](CCCCN)NC(=O)CNC(=O)[C@H](C(C)(C)C)NC1=O [compound 397, Ac-hTba-Y-C-Tbg-G-K-ThpA-D-V-Y-C-5FW-F-hydroxyVal-dLys(DOTA)-COOH] (Ac-[hLeu(5-Me)]YC[Tle]GK[Ala(4-THP)]DVYC[Trp(5-F)]F[Val(3-OH)][dK](DOTA)-OH; disulfide 3-11)		10 to 100 nM
CC(C)CC[C@H](NC(=O)CCOCCOCCOCCOCCOCCOCCOCCOCCNC(=O)CN1CCN(CC(=O)O)CCN(CC(=O)O)CCN(CC(=O)O)CC1)C(=O)N[C@@H](Cc1ccc(O)cc1)C(=O)N[C@H]1CSSC[C@@H](C(=O)N[C@@H](Cc2c[nH]c3ccc(F)cc23)C(=O)N[C@@H](Cc2ccccc2)C(=O)N2CCC[C@H]2C(N)=O)NC(=O)[C@H](Cc2ccc(O)cc2)NC(=O)[C@H](C(C)C)NC(=O)[C@H](CC(=O)O)NC(=O)[C@H](Cc2ccc(C(=O)O)cc2)NC(=O)[C@H](CC2CCNCC2)NC(=O)CNC(=O)[C@H](C(C)C)NC1=O [compound 285, DOTA-PEG8-hLeu-Y-C-V-G-PipAla-4COOHPhe-D-V-Y-C-5FW-F-Pro-CONH2] ({DOTA-PEG8}-[hLeu]YCVG[Ala(piperidin-4-yl)][Phe(4-COOH)]DVYC[Trp(5-F)]FP-NH2; disulfide 3-11)	1 to 10 nM	
CC(=O)N[C@@H](CCC(C)C)C(=O)N[C@@H](Cc1ccc(O)cc1)C(=O)N[C@H]1CSSC[C@@H](C(=O)N[C@@H](Cc2c[nH]c3ccc(F)cc23)C(=O)N[C@@](C)(Cc2ccccc2)C(=O)N[C@H](C(=O)N[C@H](CCCCNC(=O)CN2CCN(CC(=O)O)CCN(CC(=O)O)CCN(CC(=O)O)CC2)C(N)=O)[C@@H](C)O)NC(=O)[C@H](Cc2ccc(O)cc2)NC(=O)[C@H](C(C)C)NC(=O)[C@H](CC(=O)O)NC(=O)[C@H](Cc2ccc(O)cc2)NC(=O)[C@H](CCCCN)NC(=O)CNC(=O)[C@H](C(C)C)NC1=O [compound 168, Ac-hLeu-Y-C-V-G-K-Y-D-V-Y-C-5FW-aMePhe-Thr-dLys(DOTA)-CONH2] (Ac-[hLeu]YCVGKYDVYC[Trp(5-F)][αMeF]T[dK](DOTA)-NH2; disulfide 3-11)	100 to 300 nM	
CC(=O)N[C@@H](CCC(C)C)C(=O)N[C@@H](Cc1ccc(O)cc1)C(=O)N[C@H]1CSSC[C@@H](C(=O)N[C@@H](Cc2c[nH]c3ccccc23)C(=O)N[C@@H](Cc2ccccc2)C(=O)N[C@H](C(=O)N[C@H](CCCCNC(=O)CN2CCN(CC(=O)O)CCN(CC(=O)O)CCN(CC(=O)O)CC2)C(N)=O)[C@@H](C)O)NC(=O)[C@H](Cc2ccc(O)cc2)NC(=O)[C@H](C2CCCCC2)NC(=O)[C@H](CC(=O)O)NC(=O)[C@H](Cc2ccncc2)NC(=O)[C@H](CCCCN)NC(=O)CNC(=O)[C@H](C(C)C)NC1=O [compound 153, Ac-hLeu-Y-C-V-G-K-4PyA-D-ChG-Y-C-W-F-Thr-dLys(DOTA)-CONH2] (Ac-[hLeu]YCVGK[4Pal]D[Chg]YCWFT[dK](DOTA)-NH2; disulfide 3-11)	< 1 nM	
CC(=O)N[C@@H](CCC(C)C)C(=O)N[C@@H](Cc1ccc(O)cc1)C(=O)N[C@H]1CSSC[C@@H](C(=O)N[C@@H](Cc2c[nH]c3ccc(F)cc23)C(=O)N[C@@H](Cc2ccccc2)C(=O)N[C@H](C(=O)N[C@H](CCC(=O)O)C(N)=O)C(C)(C)O)NC(=O)[C@H](Cc2ccc(O)cc2)NC(=O)[C@H](C(C)C)NC(=O)[C@H](CC(=O)O)NC(=O)[C@H](CC2CCOCC2)NC(=O)[C@H](CC2CCN(C(=O)CC[C@H](C(=O)O)N3CCN(CC(=O)O)CCN(CC(=O)O)CCN(CC(=O)O)CC3)CC2)NC(=O)CNC(=O)[C@H](C(C)(C)C)NC1=O [compound 476, Ac-hLeu-Y-C-Tbg-G-Pip(R-DOTAGA)Ala-ThpA-D-V-Y-C-5FW-F-hydroxyVal-dGlu-CONH2] (Ac-[hLeu]YC[Tle]G[Ala(piperidin-4-yl)](X4)[Ala(4-THP)]DVYC[Trp(5-F)]F[Val(3-OH)][dE]-NH2; disulfide 3-11)		< 1 nM
